Values of other authors in patent US6911441B2, “Prolonged release pharmaceutical composition” (Akzo Nobel N.V., priority 2002, dated 2005).
Values after ≈ are worked out from the molar mass of the structure shown.

System: Mannheimia haemolytica

Question: Which MIC90 does the source give for CO/N=C(\C(=O)N[C@@H]1C(=O)N2C(C(=O)[O-])=C(C[n+]3cccc4c3CCCC4)CS[C@H]12)c1csc(N)n1 [Cefquinome] here?
Answer: 0.25 µg/mL (≈ 0.473 µM)
